Source: ChEMBL document CHEMBL4138237, “Activation of anti-oxidant Nrf2 signaling by enone analogues of curcumin” (Eur J Med Chem, 2018)
Calls of active or inactive are those of the source.

Legend:
[1] = target: Luciferin 4-monooxygenase (Photinus pyralis, UniProt P08659); assay: Effect on firefly luciferase activity expressed in human HepG2 cells at low concentration after 5 hrs by luminescence assay; assay type: ADME, cell-based; conditions: hepg2, 5 h
[2] = target: T1, Nuclear factor erythroid 2-related factor 2 (Homo sapiens) (UniProt Q16236); assay: Activation of Nrf2 (unknown origin) expressed in human HepG2 cells at 15 uM after 5 hrs by ARE-driven luciferase reporter gene assay relative to control; assay type: cell-based
T1 sequence (whole entry): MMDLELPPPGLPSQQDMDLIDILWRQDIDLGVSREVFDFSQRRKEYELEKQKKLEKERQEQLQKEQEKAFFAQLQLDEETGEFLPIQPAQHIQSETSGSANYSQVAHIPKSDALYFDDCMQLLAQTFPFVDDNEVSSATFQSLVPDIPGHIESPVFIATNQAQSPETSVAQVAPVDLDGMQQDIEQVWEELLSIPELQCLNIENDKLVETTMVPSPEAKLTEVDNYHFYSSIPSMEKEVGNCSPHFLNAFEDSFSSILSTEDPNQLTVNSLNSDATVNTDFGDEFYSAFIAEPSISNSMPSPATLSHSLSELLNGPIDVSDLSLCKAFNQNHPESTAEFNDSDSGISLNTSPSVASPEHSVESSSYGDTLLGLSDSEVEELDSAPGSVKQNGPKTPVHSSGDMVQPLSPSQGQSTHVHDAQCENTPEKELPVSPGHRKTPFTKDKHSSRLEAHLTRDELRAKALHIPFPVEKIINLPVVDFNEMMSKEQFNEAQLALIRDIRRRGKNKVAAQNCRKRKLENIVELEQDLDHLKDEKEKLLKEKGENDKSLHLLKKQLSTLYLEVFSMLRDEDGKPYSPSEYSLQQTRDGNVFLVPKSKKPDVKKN

Sequence of Luciferin 4-monooxygenase (P08659 whole entry): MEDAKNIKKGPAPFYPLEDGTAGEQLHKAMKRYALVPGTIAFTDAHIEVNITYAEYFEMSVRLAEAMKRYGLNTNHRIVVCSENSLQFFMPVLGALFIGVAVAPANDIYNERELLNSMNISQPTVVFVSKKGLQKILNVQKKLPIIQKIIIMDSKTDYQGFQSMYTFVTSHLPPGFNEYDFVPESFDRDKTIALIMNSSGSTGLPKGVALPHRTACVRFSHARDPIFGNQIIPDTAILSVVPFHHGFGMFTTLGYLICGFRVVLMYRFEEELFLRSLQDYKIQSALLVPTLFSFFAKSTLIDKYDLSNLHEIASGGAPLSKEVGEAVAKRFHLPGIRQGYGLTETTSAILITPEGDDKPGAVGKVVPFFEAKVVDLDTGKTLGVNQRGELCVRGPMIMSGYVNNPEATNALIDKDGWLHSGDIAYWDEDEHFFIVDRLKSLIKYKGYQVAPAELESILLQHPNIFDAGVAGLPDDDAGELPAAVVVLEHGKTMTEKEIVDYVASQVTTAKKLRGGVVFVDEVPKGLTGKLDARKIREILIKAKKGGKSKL

Compound	Activity [1]	Activity [2]	fold change (FC) [2]
O=C(CCc1ccccc1)C(Cc1ccccc1)C(=O)CCc1ccccc1	Non-Toxic	–	–
O=C(O)c1ccc(C(=O)/C=C/c2ccccc2)cc1	Non-Toxic	–	–
COc1ccc(/C=C/C(=O)CC(=O)/C=C/c2ccc(OC)c(O)c2)cc1O	Non-Toxic	Active	–
O=C1/C(=C/c2cccc(F)c2)CCC/C1=C\c1cccc(F)c1	Non-Toxic	–	–
COc1ccc(/C=C2\CN(C)C/C(=C\c3ccc(OC)cc3)C2=O)cc1	Non-Toxic	–	–
CN1C/C(=C\c2cccc(Br)c2)C(=O)/C(=C/c2cccc(Br)c2)C1	Non-Toxic	Active	–
O=C(/C=C/c1ccc(Br)cc1)/C=C/c1ccc(Br)cc1	Non-Toxic	inactive	–
COc1cc(/C=C/C(=O)/C=C/c2cc(OC)cc(OC)c2)cc(OC)c1	Non-Toxic	–	–
CSc1ccc(/C=C2\CN(C)C/C(=C\c3ccc(SC)cc3)C2=O)cc1	Non-Toxic	–	–
COc1ccc(OC)c(/C=C/C(=O)CC(=O)/C=C/c2cc(OC)ccc2OC)c1	Non-Toxic	Active	–
COc1cc(/C=C2\CN(C)C/C(=C\c3cc(OC)cc(OC)c3)C2=O)cc(OC)c1	Non-Toxic	–	–
COc1cc(/C=C/C(=O)/C=C/c2ccccc2)ccc1O	Non-Toxic	–	–
COc1ccccc1/C=C/C(=O)/C=C/c1ccccc1OC	Non-Toxic	–	–
COc1ccc(/C=C/C(=O)CC(=O)/C=C/c2ccc(OC)cc2)cc1	Non-Toxic	Active	–
COc1ccc(/C=C2\CN(C)C/C(=C\c3ccc(OC)cc3OC)C2=O)c(OC)c1	Non-Toxic	–	–
COc1cc(OC)c(OC)cc1/C=C/C(=O)/C=C/c1cc(OC)c(OC)cc1OC	Non-Toxic	–	18.2
COc1cc(/C=C2\CCC/C(=C\c3cc(OC)cc(OC)c3)C2=O)cc(OC)c1	Non-Toxic	–	22.1
COc1cc(/C=C2\CCC/C(=C\c3cc(OC)c(OC)c(OC)c3)C2=O)cc(OC)c1OC	Non-Toxic	–	–
CN1C/C(=C\c2cccc(C(F)(F)F)c2)C(=O)/C(=C/c2cccc(C(F)(F)F)c2)C1	Non-Toxic	Active	–
COc1ccc(/C=C/C(=O)/C=C/c2ccc(OC)c(O)c2)cc1O	Non-Toxic	–	–
CCc1c(/C=C/C(=O)/C=C/c2ccc(OC)c(OC)c2CC)ccc(OC)c1OC	Non-Toxic	Active	–
O=C(/C=C/c1ccc(O)cc1)CC(=O)/C=C/c1ccc(O)cc1 [BISDEMETHOXYCURCUMIN]	Non-Toxic	Active	–
CN(C)c1ccc(/C=C/C(=O)/C=C/c2ccc(N(C)C)cc2)cc1	Non-Toxic	inactive	–
O=C(/C=C/c1ccc(Cl)cc1)CC(=O)/C=C/c1ccc(Cl)cc1	Non-Toxic	inactive	–
COc1ccc(/C=C2\CCC/C(=C\c3ccc(OC)c(OC)c3OC)C2=O)c(OC)c1OC	Non-Toxic	–	–
O=C(/C=C/c1ccccc1)c1ccccc1 [CHALCONE]	Non-Toxic	Active	–

Compound	Activity [1]	Activity [2]	fold change (FC) [2]
O=C1/C(=C/c2ccc(Br)cc2)CCC/C1=C\c1ccc(Br)cc1	Non-Toxic	–	–
COc1ccc(/C=C2\CCC/C(=C\c3ccc(OC)cc3OC)C2=O)c(OC)c1	Non-Toxic	inactive	–
O=C(CCc1ccccc1)CCc1ccccc1	Non-Toxic	inactive	–
COc1ccc(/C=C2\CN(C)C/C(=C\c3ccc(OC)c(OC)c3OC)C2=O)c(OC)c1OC	Non-Toxic	–	–
O=C(/C=C/c1ccccc1C(F)(F)F)/C=C/c1ccccc1C(F)(F)F	Non-Toxic	inactive	–
COc1cc(/C=C/C(=O)c2ccc(O)c(OC)c2)ccc1O	Non-Toxic	Active	–
O=C(/C=C/c1cccc(O)c1)/C=C/c1cccc(O)c1	Non-Toxic	–	–
CC(C(=O)CCc1ccccc1)C(=O)CCc1ccccc1	Non-Toxic	–	–
Cc1cccc(/C=C2\CN(C)C/C(=C\c3cccc(C)c3)C2=O)c1	Non-Toxic	Active	–
COc1ccccc1/C=C/C(=O)CC(=O)/C=C/c1ccccc1OC	Non-Toxic	–	–
Cc1ccc(/C=C/C(=O)CC(=O)/C=C/c2ccc(C)cc2)cc1	Non-Toxic	inactive	–
O=C(/C=C/c1ccc(Cl)cc1)/C=C/c1ccc(Cl)cc1	Non-Toxic	inactive	–
COc1cc(/C=C2\CN(C)C/C(=C\c3cc(OC)c(OC)c(OC)c3)C2=O)cc(OC)c1OC	Non-Toxic	inactive	–
COc1cc(CCC(=O)C(Cc2ccccc2)C(=O)CCc2ccc(O)c(OC)c2)ccc1O	Non-Toxic	–	–
N#Cc1ccc(C(=O)/C=C/c2ccccc2)cc1	Non-Toxic	–	–
COc1cc(/C=C/C(=O)/C=C/c2ccc(OC(C)=O)c(OC)c2)ccc1OC(C)=O	Non-Toxic	–	–
CCOc1ccc(/C=C2\CN(C)C/C(=C\c3ccc(OCC)cc3)C2=O)cc1	Non-Toxic	–	–
CC(=O)Oc1ccc(/C=C/C(=O)/C=C/c2ccc(OC(C)=O)cc2)cc1	Non-Toxic	–	–
COc1cc(C(=O)/C=C/c2ccccc2)ccc1O	Non-Toxic	Active	–
COc1cccc(/C=C/C(=O)CC(=O)/C=C/c2cccc(OC)c2OC)c1OC	Non-Toxic	–	–
COc1ccc(/C=C/C(=O)/C=C/c2ccc(OC)c(OC)c2)cc1OC	Non-Toxic	–	–
COc1ccc(/C=C2\CCC/C(=C\c3ccc(OC)c(OC)c3)C2=O)cc1OC	Non-Toxic	–	–
O=C(/C=C/c1ccccc1Cl)/C=C/c1ccccc1Cl	Non-Toxic	Active	–
O=C(/C=C/c1cccc(Cl)c1)/C=C/c1cccc(Cl)c1	Non-Toxic	inactive	–
O=C(/C=C/c1ccccc1)C(Cc1ccccc1)(Cc1ccccc1)C(=O)/C=C/c1ccccc1	Non-Toxic	Active	–
O=C(/C=C/c1cccc([N+](=O)[O-])c1)CC(=O)/C=C/c1cccc([N+](=O)[O-])c1	Non-Toxic	inactive	–

Compound	Activity [1]	Activity [2]	fold change (FC) [2]
O=C(/C=C(\O)c1ccccc1)c1ccccc1	Non-Toxic	–	–
COc1cc(/C=C/C(=O)CC(=O)/C=C/c2ccc(O)c(OC)c2)ccc1O [CURCUMIN]	Non-Toxic	–	22.6
COc1ccc(/C=C/C(=O)CC(=O)/C=C/c2ccc(OC)c(OC)c2)cc1OC [TETRAMETHOXYCURCUMIN]	Non-Toxic	–	–
COc1ccc(/C=C2\CCC/C(=C\c3ccc(OC)cc3)C2=O)cc1	Non-Toxic	inactive	–
COc1cccc(OC)c1/C=C/C(=O)/C=C/c1c(OC)cccc1OC	Non-Toxic	–	–
COc1ccc(/C=C/C(=O)/C=C/c2ccccc2)cc1	Non-Toxic	–	–
O=C(/C=C/c1ccccc1)/C(Cc1ccccc1)=C(O)/C=C/c1ccccc1	Non-Toxic	–	–
COc1cc(/C=C/C(=O)/C=C/c2ccc(O)c(OC)c2)ccc1O	Non-Toxic	–	25.1
CC(=O)/C=C/c1ccccc1O	Non-Toxic	–	–
COc1cccc(/C=C/C(=O)CC(=O)/C=C/c2cccc(OC)c2)c1	Non-Toxic	Active	–
COc1cccc(/C=C2\CCC/C(=C\c3cccc(OC)c3OC)C2=O)c1OC	Non-Toxic	–	–
COc1cccc(/C=C/C(=O)/C=C/c2cccc(OC)c2OC)c1OC	Non-Toxic	–	–
COc1cc(/C=C2\CCC/C(=C\c3ccc(O)c(OC)c3)C2=O)ccc1O [CYCLOVALONE]	Non-Toxic	–	–
COc1ccc(/C=C/C(=O)/C=C/c2ccc(OC)cc2OC)c(OC)c1	Non-Toxic	–	–
Cc1ccc(C(=O)/C=C/c2ccccc2)c(C)c1	Non-Toxic	–	29.9
O=C1/C(=C/c2cccc(O)c2)CCC/C1=C\c1cccc(O)c1	Non-Toxic	–	–
O=C(O)c1ccc(/C=C/C(=O)c2ccccc2)cc1	Non-Toxic	Active	–
O=C(/C=C/c1ccccc1)/C=C/c1ccccc1	Non-Toxic	Active	–
COc1ccc(OC)c(/C=C2\CCC/C(=C\c3cc(OC)ccc3OC)C2=O)c1	Non-Toxic	–	–
COc1cccc(/C=C2\CN(C)C/C(=C\c3cccc(OC)c3)C2=O)c1	Non-Toxic	–	–
O=C(/C=C/c1ccc(Br)cc1)CC(=O)/C=C/c1ccc(Br)cc1	Non-Toxic	inactive	–
COc1ccc(/C=C/C(C)=O)cc1	Non-Toxic	–	–
O=C(/C=C/c1cccc(O)c1)CC(=O)/C=C/c1cccc(O)c1	Non-Toxic	Active	–
COc1cc(/C=C/C(=O)CC(=O)/C=C/c2cc(OC)cc(OC)c2)cc(OC)c1	Non-Toxic	Active	–
COc1cccc(/C=C2\CN(C)C/C(=C\c3cccc(OC)c3OC)C2=O)c1OC	Non-Toxic	–	–
C/C(C(=O)/C=C/c1ccccc1)=C(O)\C=C\c1ccccc1	Non-Toxic	–	–
